Assay [1] relates to mice. Nature of the assay: Rodent hemorrhage and trauma (surgery) model. The assay is classed as in vivo. From the text:
The acute changes in blood glucose that occur in a T1DM model were invesitaged. Streptozotocin (STZ)-treated mice were subjected to a hemorrhage protocol to mimic surgical induction of the neuroendocrine stress response in humans (FIG. 1). Adipose tissue lipolysis was controlled via the addition of the small molecule inhibitor Atglistatin. The extent of glycemic excursions and ketogenesis was followed.
Separate rodent models of diabetes were employed to investigate the unique co-morbidities associated with T1DM. For the T1DM model, C57BL/6J mice were subjected to low dose injection of streptozotocin (50 mg/kg) at 6-8 weeks of age (see the website for the Diabetic Complications Consortium).
The protocol for modeling surgery-induced stress has been adapted from several sources and is available to an art worker. Although few human patients undergo extensive hemorrhage during elective surgeries, this rodent protocol is a consistent and reproducible experimental model for surgical stress in humans. Briefly, on the day of the surgery 10-12 week old male mice were fasted for six hours prior to surgery and pre-treated with or without lmg/kg body weight of Atglistatin at four hours prior to surgery to prevent adipose tissue lipolysis. Mice were then anesthetized by continuous inhalation of isoflurane and subjected to a 2-cm ventral midline laparotomy. The abdomen will then be sutured, a catheter was placed in the right femoral artery and mice were hemorrhaged from the left femoral artery to a mean arterial pressure (MAP) of 35-40 mm Hg (T0′). Blood glucose and ketone levels were monitored during the surgery. The mice were followed until 30′ post-hemorrhage and were maintained continuously under anesthesia. At the termination of the experiment, blood was collected to measure serum catecholamines, insulin, cytokines, ketones and glycerol levels, among other possible metabolic parameters.
Rodent hemorrhage and trauma model—To activate the adaptive stress response and emulate the acute hyperglycemia and insulin resistance that develops after surgery, trauma and hemorrhage mice as previously described will be used. Briefly, 10-12 week old male mice are fasted for 4-6 hours prior to surgery and 4 hours before surgery, Atglistatin (1 mg/kg) or vehicle will be injected intraperitoneally. Mice are anesthetized by continuous inhalation of 1.5% isoflurane and 98.5% 02 throughout all procedures. After the mice are shaved, surgery will begin with a 2-cm ventral midline laparotomy. The abdomen is then sutured and the wounds bathed with 1% lidocaine to reduce pain. A catheter is placed in the right femoral artery for monitoring mean arterial pressure (MAP). To replicate the blood loss during a surgery, mice are hemorrhaged from the left femoral artery to an MAP of 35-40 mmHg over a 10-minute period. Once the MAP reaches 35-40 mmHg, the […]. […] Control mice are subjected to trauma alone. Mice are subjected to anesthesia, laparotomy, and catheterization. […] Blood glucose levels are monitored during the surgery.

Assay [2] addresses T1, pancreatic lipase (Homo sapiens, UniProt P16233).
T1 sequence (P16233 17-465): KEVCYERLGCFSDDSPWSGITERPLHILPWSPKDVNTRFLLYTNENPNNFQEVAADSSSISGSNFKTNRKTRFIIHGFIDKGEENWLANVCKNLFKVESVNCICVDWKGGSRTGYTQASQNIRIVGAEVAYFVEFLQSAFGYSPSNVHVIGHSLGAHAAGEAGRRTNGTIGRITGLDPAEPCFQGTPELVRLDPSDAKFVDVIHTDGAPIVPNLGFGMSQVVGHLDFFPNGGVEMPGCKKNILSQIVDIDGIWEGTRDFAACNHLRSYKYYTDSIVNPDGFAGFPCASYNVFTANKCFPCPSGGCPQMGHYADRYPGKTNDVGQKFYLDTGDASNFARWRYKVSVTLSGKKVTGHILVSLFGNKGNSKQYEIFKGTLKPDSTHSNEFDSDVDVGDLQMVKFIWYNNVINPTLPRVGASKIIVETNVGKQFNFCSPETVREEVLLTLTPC
Conditions: cited from earlier work.

The target in assay [3] is T2, lipoprotein lipase (Homo sapiens, UniProt P06858).
T2 sequence (P06858 28-475): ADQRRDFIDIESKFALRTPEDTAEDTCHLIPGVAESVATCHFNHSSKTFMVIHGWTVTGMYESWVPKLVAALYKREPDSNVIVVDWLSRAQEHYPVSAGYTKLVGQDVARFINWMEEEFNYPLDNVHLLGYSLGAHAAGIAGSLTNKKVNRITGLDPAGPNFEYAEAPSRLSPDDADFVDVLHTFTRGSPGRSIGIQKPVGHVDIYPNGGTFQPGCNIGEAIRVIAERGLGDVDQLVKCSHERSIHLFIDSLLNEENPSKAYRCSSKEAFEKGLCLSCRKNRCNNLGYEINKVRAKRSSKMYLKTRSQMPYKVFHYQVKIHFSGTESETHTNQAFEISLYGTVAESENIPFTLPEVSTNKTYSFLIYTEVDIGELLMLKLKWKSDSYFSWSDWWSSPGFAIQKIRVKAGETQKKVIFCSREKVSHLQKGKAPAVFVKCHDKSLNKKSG
The note with it: cited from earlier work.

Assay [4] concerns white adipose tissue organ cultures. The note with it: cited from earlier work.
For assay [5], the system named is lipolysis by ATGL. Conditions: in vivo; cited from earlier work.

With `CN(C)C(=O)Nc1cccc(-c2ccc(N(C)C)cc2)c1` [Atglistatin, N′-[4′-(dimethylamino) [1,1′-biphenyl]-3-yl]-N,N-dimethyl-urea], in assay [1] (control mice, pre-treated with lmg/kg body weight four hours prior to surgery, FIG. 2B), the “adipose tissue lipolysis as assessed by serum glycerol levels” value is “attenuating adipose tissue lipolysis”. Also, in assay [1] (mice, Atglistatin 1 mg/kg intraperitoneally 4 hours before surgery), the “circulating glycerol (lipolysis)” value is “reduction in circulating glycerol”. Moreover, the hemorrhage-induced hyperglycemia result in assay [1] (mice, Atglistatin 1 mg/kg intraperitoneally 4 hours before surgery, FIG. 3A) is reported as “effective in preventing hemorrhage-induced hyperglycemia”. In addition, in assay [1] (mice, Atglistatin 1 mg/kg intraperitoneally 4 hours before surgery, FIG. 3B), the “insulin resistance in adipose tissue and skeletal muscle” value is “attenuation of insulin resistance in adipose tissue and skeletal muscle”. Moreover, the stress-induced lipolysis entry in assay [1] (pharmacological inhibition of ATGL) is “largely blocks stress-induced lipolysis”. Also, in assay [2], the “inhibition of pancreatic lipase” value is listed as “does not inhibit”. Moreover, the “inhibition of lipoprotein lipase” value in assay [3] is given as “does not inhibit”. The “lipolysis by ATGL (fatty acid mobilization)” value in assay [4] and in assay [5] was “blocks lipolysis” each time.

These data come from patent US20180256623A1, “COMPOSITIONS AND METHOD FOR REGULATING ADIPOSE TISSUE LIPOLYSIS, INSULIN-RESISTANCE, AND HYPERGLYCEMIA” (University of Virginia Patent Foundation, priority 2015, published 2018).
